Assay results taken from ChEMBL document CHEMBL1127234, “Acceptor analogues as potential inhibitors of bovine -1,4-galactosyl transferase” (Bioorg Med Chem Lett, 1994).
pKi: −log10 of the molar value.

How the values were obtained:
[1] = target: T1, Beta-1,4-galactosyltransferase 1 (Bos taurus) (UniProt P08037); experiment: (§1) Inhibitory activity against bovine Beta-1,4-galactosyltransferase at 100 uM concentration
T1 sequence (whole entry): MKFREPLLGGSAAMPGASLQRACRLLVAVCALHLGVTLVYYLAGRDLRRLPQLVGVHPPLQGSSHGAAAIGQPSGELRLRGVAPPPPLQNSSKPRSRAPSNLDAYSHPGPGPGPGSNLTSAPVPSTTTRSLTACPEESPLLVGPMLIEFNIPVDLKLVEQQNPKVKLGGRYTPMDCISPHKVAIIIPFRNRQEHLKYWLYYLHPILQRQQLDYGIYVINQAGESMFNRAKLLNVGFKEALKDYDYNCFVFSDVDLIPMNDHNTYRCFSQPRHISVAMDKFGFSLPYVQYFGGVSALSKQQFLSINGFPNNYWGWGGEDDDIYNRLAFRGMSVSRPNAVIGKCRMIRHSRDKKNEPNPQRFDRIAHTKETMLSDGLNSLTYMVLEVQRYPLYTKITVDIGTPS

[2] = target: T2, Beta-1,4-galactosyltransferase 1 (Bos taurus, UniProt P08037); experiment: as §1
T2 sequence (P08037 whole entry): T1 sequence (whole entry)

[3] = target: T1, Beta-1,4-galactosyltransferase 1 (Bos taurus); experiment: Inhibitory activity against bovine Beta-1,4-galactosyltransferase at 100 uM concentration; ND means Not detectable

CC(=O)N[C@H]1[C@H](O)[C@@H](N=[N+]=[N-])[C@H](OCc2ccccc2)O[C@@H]1CO
Rate [1]: 27%

CC(=O)N[C@H]1[C@H](O)[C@@H](N)[C@H](OCc2ccccc2)O[C@@H]1CO
Rate [1]: 4%

CC(=O)N[C@H]1[C@H](OCc2ccccc2)O[C@H](CO)[C@@H](N)[C@@H]1O
pKi [2]: 3.07
Rate [1]: 2%

CC(=O)N[C@H]1[C@H](OCc2ccccc2)O[C@H](CO)[C@@H](NC(C)=O)[C@@H]1O
Rate [3]: Not detectable
Rate [1]: 2%

CC(=O)N[C@H]1[C@H](OCc2ccccc2)O[C@H](CO)[C@@H](N=[N+]=[N-])[C@@H]1O
Rate [3]: Not detectable

CC(=O)N[C@H]1[C@H](OCc2ccccc2)O[C@H](CO)[C@@H](O)[C@@H]1O
Rate [1]: 100%
